Test results reported in patent EP4740948A1 (Dong Wha Pharm. Co., Ltd., priority 2023, dated 2025).

Assays:
[1] = target: EZH1 (Homo sapiens, UniProt Q92800); assay: AlphaLISA enzyme activity inhibition, EZH1; format: biochemical; conditions: for inhibition at 0.005 µM: 5nM test substance; for inhibition at 0.01 µM: 10nM test substance
Outline: (§1)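 Enzyme inhibition rate was calculated relative to DMSO from AlphaLISA signal, with acceptor beads added after a 2 h methylation reaction and donor beads 1 h later. Each enzyme, EZH1 or EZH2, was pre-mixed with compound (final 5 nM or 10 nM) in Tris buffer pH 8.0 before histone H3 peptide and SAM initiated the reaction.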

[2] = target: EZH2 (Homo sapiens, UniProt Q15910); assay: AlphaLISA enzyme activity inhibition, EZH2; format: biochemical; conditions: for inhibition at 0.005 µM: 5nM test substance; for inhibition at 0.01 µM: 10nM test substance
Outline: as §1

[3] = test system: Lovo cells; assay: Cancer cell proliferation inhibition (Cell Counting Kit-8), colorectal cancer cell line; format: cell-based; conditions: Homo sapiens, LoVo, 264 h, 1000 nM, cultured seven to 11 days; read-out: % inhibition rate LoVo
Outline: (§2)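 After plating 100 to 1,000 cells per well in medium with 10% fetal bovine serum, each line receives 1000 nM compound and is cultured for seven to 11 days. Growth inhibition is derived from CCK-8 signal compared with control cultures.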

[4] = test system: G401 cells; assay: Cancer cell proliferation inhibition (Cell Counting Kit-8), rhabdoid tumor cell line; format: cell-based; conditions: Homo sapiens, G-401, 264 h, 1000 nM, cultured seven to 11 days; read-out: % inhibition rate G401
Outline: (§3)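 Single 1000 nM dose of test substance, applied to cells seeded at 100–1,000 per well in 10% FBS medium, then culture for seven to 11 days. CCK-8 read-out; inhibition rate expressed as percent relative to untreated control.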

[5] = test system: MKN-45 cells; assay: Cancer cell proliferation inhibition (Cell Counting Kit-8), gastric cancer cell line; format: cell-based; conditions: Homo sapiens, MKN-45, 264 h, 1000 nM, cultured seven to 11 days; read-out: % inhibition rate MKN -45
Outline: as §3

[6] = test system: SW-13 cells; assay: Cancer cell proliferation inhibition (Cell Counting Kit-8), adrenal cancer cell line; format: cell-based; conditions: Homo sapiens, SW13, 264 h, 1000 nM, cultured seven to 11 days; read-out: % inhibition rate SW-13
Outline: as §2

[7] = test system: MIA-PaCa-2 cells; assay: Cancer cell proliferation inhibition (Cell Counting Kit-8), pancreatic cancer cell line; format: cell-based; conditions: Homo sapiens, MIA PaCa-2, 264 h, 1000 nM, cultured seven to 11 days; read-out: % inhibition rate MIA-Paca2
Outline: as §2

[8] = test system: NCI-H1299 cells; assay: Cancer cell proliferation inhibition (Cell Counting Kit-8), lung cancer cell line; format: cell-based; conditions: Homo sapiens, NCI-H1299, 264 h, 1000 nM, cultured seven to 11 days; read-out: % inhibition rate NCI-H129 9
Outline: as §2

EZH1, sequence (Q92800 whole entry, species assumed): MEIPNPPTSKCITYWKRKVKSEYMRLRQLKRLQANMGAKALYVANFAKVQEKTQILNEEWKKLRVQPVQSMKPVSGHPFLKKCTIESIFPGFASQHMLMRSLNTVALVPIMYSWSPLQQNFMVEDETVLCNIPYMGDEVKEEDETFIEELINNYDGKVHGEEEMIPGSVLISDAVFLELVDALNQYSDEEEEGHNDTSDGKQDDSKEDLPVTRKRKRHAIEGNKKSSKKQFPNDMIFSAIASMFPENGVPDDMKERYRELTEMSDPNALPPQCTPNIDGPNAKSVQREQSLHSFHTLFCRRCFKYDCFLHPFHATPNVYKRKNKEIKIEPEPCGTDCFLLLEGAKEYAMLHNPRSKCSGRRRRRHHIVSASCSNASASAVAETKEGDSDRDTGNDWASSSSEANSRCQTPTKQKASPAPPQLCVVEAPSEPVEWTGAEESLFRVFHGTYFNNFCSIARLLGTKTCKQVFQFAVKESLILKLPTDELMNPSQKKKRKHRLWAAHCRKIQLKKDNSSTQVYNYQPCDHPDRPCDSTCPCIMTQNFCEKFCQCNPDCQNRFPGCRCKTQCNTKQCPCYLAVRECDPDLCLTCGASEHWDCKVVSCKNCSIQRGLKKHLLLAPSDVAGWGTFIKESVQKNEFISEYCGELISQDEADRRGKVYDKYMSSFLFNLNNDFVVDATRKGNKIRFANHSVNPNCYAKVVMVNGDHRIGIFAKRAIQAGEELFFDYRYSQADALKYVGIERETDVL
EZH1, sequence (O75530 whole entry partner, species assumed): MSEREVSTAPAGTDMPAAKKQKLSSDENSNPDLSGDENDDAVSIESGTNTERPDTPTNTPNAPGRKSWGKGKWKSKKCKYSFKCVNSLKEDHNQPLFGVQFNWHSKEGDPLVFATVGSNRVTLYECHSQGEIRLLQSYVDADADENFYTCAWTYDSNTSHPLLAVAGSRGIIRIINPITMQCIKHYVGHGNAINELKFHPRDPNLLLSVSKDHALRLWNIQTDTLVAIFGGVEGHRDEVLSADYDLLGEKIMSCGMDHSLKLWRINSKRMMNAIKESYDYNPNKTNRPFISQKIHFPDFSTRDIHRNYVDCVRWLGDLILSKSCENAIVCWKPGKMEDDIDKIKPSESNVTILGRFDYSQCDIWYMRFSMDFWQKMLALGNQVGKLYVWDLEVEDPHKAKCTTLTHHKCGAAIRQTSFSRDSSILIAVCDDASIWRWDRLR
EZH1, sequence (Q15022 whole entry partner, species assumed): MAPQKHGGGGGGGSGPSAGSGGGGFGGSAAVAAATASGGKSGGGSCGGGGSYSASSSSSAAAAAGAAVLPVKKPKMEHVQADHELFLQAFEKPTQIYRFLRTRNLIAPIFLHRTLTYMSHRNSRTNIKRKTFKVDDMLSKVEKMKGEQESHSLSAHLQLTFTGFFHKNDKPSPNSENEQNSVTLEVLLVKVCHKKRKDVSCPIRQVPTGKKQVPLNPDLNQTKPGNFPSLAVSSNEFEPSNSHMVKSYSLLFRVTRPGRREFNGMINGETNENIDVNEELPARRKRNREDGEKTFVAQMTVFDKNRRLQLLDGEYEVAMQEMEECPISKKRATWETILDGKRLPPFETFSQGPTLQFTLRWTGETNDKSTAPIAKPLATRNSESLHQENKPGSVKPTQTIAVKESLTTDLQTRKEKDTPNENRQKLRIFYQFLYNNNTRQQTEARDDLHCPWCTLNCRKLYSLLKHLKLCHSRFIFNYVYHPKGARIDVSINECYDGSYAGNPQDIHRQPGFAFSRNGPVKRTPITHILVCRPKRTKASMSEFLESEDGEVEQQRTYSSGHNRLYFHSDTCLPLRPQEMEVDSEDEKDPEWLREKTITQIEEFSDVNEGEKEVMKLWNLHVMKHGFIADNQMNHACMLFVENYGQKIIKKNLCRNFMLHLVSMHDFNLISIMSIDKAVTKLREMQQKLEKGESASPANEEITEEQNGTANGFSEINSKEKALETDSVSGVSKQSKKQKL
EZH2, sequence (Q15910 whole entry, species assumed): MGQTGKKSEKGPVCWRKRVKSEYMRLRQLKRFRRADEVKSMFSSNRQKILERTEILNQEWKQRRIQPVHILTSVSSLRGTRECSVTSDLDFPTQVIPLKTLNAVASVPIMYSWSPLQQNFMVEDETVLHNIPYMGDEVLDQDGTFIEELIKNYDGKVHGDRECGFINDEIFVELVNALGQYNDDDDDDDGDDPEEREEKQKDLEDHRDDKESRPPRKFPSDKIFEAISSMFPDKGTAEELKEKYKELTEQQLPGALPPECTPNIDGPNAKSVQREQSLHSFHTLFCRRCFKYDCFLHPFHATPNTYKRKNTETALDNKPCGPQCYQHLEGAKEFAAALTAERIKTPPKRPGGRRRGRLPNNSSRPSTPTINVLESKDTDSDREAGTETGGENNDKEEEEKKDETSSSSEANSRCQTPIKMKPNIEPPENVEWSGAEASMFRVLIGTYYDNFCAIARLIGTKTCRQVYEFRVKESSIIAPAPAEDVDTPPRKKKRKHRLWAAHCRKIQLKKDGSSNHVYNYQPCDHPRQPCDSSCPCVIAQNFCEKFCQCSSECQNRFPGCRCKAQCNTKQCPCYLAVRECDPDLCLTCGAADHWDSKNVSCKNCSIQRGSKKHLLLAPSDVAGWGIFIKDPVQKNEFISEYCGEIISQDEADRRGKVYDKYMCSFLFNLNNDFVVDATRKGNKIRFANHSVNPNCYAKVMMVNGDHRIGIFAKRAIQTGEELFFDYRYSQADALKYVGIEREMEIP
EZH2, sequence (O75530 whole entry partner, species assumed): as the sequence (O75530 whole entry partner, species assumed) above
EZH2, sequence (Q15022 whole entry partner, species assumed): as the sequence (Q15022 whole entry partner, species assumed) above

SMILES | inhibition at 0.005 µM [1] [%] | inhibition at 0.005 µM [2] [%] | inhibition at 1 µM [3] [%] | inhibition at 1 µM [4] [%] | inhibition at 1 µM [5] [%] | inhibition at 1 µM [6] [%] | inhibition at 1 µM [7] [%] | inhibition at 1 µM [8] [%] | inhibition at 0.01 µM [1] [%] | inhibition at 0.01 µM [2] [%]
CSc1cc(C)[nH]c(=O)c1CNC(=O)c1cc(-c2ccc(N3C[C@@H](C)O[C@@H](C)C3)nc2)c2c(c1C)OC(C)([C@H]1CC[C@H](N(C)C[C@H](C)O)CC1)O2 (stereo partly drawn) [Compound 29, 7-(6-((2S,6R)-2,6-dimethylmorpholino)pyridin-3-yl)-2-(trans-4-(((S)-2-hydroxypropyl)(methyl)amino)cyclohexyl)-2,4-dimethyl-N-((6-methyl-4-(methylthio)-2-oxo-1,2-dihydropyridin-3-yl)methyl)benzo[d][1,3]dioxole-5-carboxamide] | 91.6 | 98.3 | ≥ 70 | 30 to 70 | ≤ 30 | 30 to 70 | ≤ 30 | ≤ 30 |  | 
CSc1cc(C)[nH]c(=O)c1CNC(=O)c1cc(-c2cnc(N3CCSCC3)nc2)c2c(c1C)OC(C)(C1CCN(CC(F)(F)F)CC1)O2 (stereo not shown) [Compound 92, 2,4-dimethyl-N-((6-methyl-4-(methylthio)-2-oxo-1,2-dihydropyridin-3-yl)methyl)-7-(2-thiomorpholinopyrimidin-5-yl)-2-(1-(2,2,2-trifluoroethyl)piperidin-4-yl)benzo[d][1,3]dioxole-5-carboxamide] | 27.2 | 80.1 | ≥ 70 | ≥ 70 | 30 to 70 | ≤ 30 | ≤ 30 | ≤ 30 | 43.2 | 91.8
CSc1cc(C)[nH]c(=O)c1CNC(=O)c1cc(-c2cnc(N3C[C@@H](C)O[C@@H](C)C3)nc2)c2c(c1C)OC(C)([C@H]1CC[C@H](N(C)CC(F)(F)F)CC1)O2 (stereo partly drawn) [Compound 23, 7-(2-((2S,6R)-2,6-dimethylmorpholino)pyrimidin-5-yl)-2,4-dimethyl-2-(trans-4-(methyl(2,2,2-trifluoroethyl)amino)cyclohexyl)-N-((6-methyl-4-(methylthio)-2-oxo-1,2-dihydropyridin-3-yl)methyl)benzo[d][1,3]dioxole-5-carboxamide] | 31.4 | 34.2 | ≥ 70 | 30 to 70 | ≤ 30 | ≤ 30 | ≤ 30 | ≤ 30 |  | 
CSc1cc(C)[nH]c(=O)c1CNC(=O)c1cc(-c2ccc(N3C[C@@H](C)O[C@@H](C)C3)nc2)c2c(c1C)OC(C)([C@H]1CC[C@H](N(C)C(C)C)CC1)O2 (stereo partly drawn) [Compound 110, 7-(6-((2S,6R)-2,6-dimethylmorpholino)pyridin-3-yl)-2-(trans-4-(isopropyl(methyl)amino)cyclohexyl)-2,4-dimethyl-N-((6-methyl-4-(methylthio)-2-oxo-1,2-dihydropyridin-3-yl)methyl)benzo[d][1,3]dioxole-5-carboxamide] | 52 | 99.8 | ≥ 70 | ≥ 70 | ≤ 30 | 30 to 70 | ≤ 30 | ≤ 30 | 91.9 | 100
CSc1cc(C)[nH]c(=O)c1CNC(=O)c1cc(-c2ccc(N3C[C@@H](C)O[C@@H](C)C3)nc2)c2c(c1C)OC(C)([C@H]1CC[C@H](N(C)C)CC1)O2 (stereo partly drawn) [Compound 1, 2-(trans-4-(dimethylamino)cyclohexyl)-7-(6-((2S,6R)-2,6-dimethylmorpholino)pyridin-3-yl)-2,4-dimethyl-N-((6-methyl-4-(methylthio)-2-oxo-1,2-dihydropyridin-3-yl)methyl)benzo[d][1,3]dioxole-5-carboxamide] | 89.1 | 98.7 | 30 to 70 | 30 to 70 | ≤ 30 | 30 to 70 | ≤ 30 | ≤ 30 |  | 
CSc1cc(C)[nH]c(=O)c1CNC(=O)c1cc(-c2ccc(N3CCSCC3)nc2)c2c(c1C)OC(C)([C@H]1CC[C@H](N(C)C)CC1)O2 (relative stereo) [Compound 17, 2-(trans-4-(dimethylamino)cyclohexyl)-2,4-dimethyl-N-((6-methyl-4-(methylthio)-2-oxo-1,2-dihydropyridin-3-yl)methyl)-7-(6-thiomorpholinopyridin-3-yl)benzo[d][1,3]dioxole-5-carboxamide] | 93.8 | 99.3 | ≥ 70 | 30 to 70 | ≤ 30 | 30 to 70 | ≤ 30 | 30 to 70 |  | 
COC1CN([C@H]2CC[C@H](C3(C)Oc4c(-c5ccc(N6C[C@@H](C)O[C@@H](C)C6)nc5)cc(C(=O)NCc5c(SC)cc(C)[nH]c5=O)c(C)c4O3)CC2)C1 (stereo partly drawn) [Compound 106, 7-(6-((2S,6R)-2,6-dimethylmorpholino)pyridin-3-yl)-2-(trans-4-(3-methoxyazetidin-1-yl)cyclohexyl)-2,4-dimethyl-N-((6-methyl-4-(methylthio)-2-oxo-1,2-dihydropyridin-3-yl)methyl)benzo[d][1,3]dioxole-5-carboxamide] | 34.2 | 90.6 | ≥ 70 | ≥ 70 | ≤ 30 | 30 to 70 | ≤ 30 | 30 to 70 | 69.1 | 99.9
CSc1cc(C)[nH]c(=O)c1CNC(=O)c1cc(-c2ccc(N3C[C@@H](C)O[C@@H](C)C3)nc2)c2c(c1C)OC(C)([C@H]1CC[C@H](N(C)CC3OCCO3)CC1)O2 (stereo partly drawn) [Compound 32, 2-(trans-4-(((1,3-dioxolan-2-yl)methyl)(methyl)amino)cyclohexyl)-7-(6-((2S,6R)-2,6-dimethylmorpholino)pyridin-3-yl)-2,4-dimethyl-N-((6-methyl-4-(methylthio)-2-oxo-1,2-dihydropyridin-3-yl)methyl)benzo[d][1,3]dioxole-5-carboxamide] | 74.1 | 82.6 | ≥ 70 | 30 to 70 | 30 to 70 | 30 to 70 | ≤ 30 | 30 to 70 |  | 
CSc1cc(C)[nH]c(=O)c1CNC(=O)c1cc(-c2ccc(F)cc2)c2c(c1C)OC(C)([C@H]1CC[C@H](N(C)C)CC1)O2 (relative stereo) [Compound 10, 2-(trans-4-(dimethylamino)cyclohexyl)-7-(4-fluorophenyl)-2,4-dimethyl-N-((6-methyl-4-(methylthio)-2-oxo-1,2-dihydropyridin-3-yl)methyl)benzo[d][1,3]dioxole-5-carboxamide] | 82.8 | 98.7 | ≥ 70 | 30 to 70 | ≤ 30 | 30 to 70 | ≤ 30 | ≤ 30 |  | 
COCCN(C)[C@H]1CC[C@H](C2(C)Oc3c(-c4cnc(N(C)C)nc4)cc(C(=O)NCc4c(SC)cc(C)[nH]c4=O)c(C)c3O2)CC1 (relative stereo) [Compound 26, 7-(2-(dimethylamino)pyrimidin-5-yl)-2-(trans-4-((2-methoxyethyl)(methyl)amino)cyclohexyl)-2,4-dimethyl-N-((6-methyl-4-(methylthio)-2-oxo-1,2-dihydropyridin-3-yl)methyl)benzo[d][1,3]dioxole-5-carboxamide] | 87.3 | 99.6 | ≥ 70 | 30 to 70 | ≤ 30 | 30 to 70 | ≤ 30 | ≤ 30 |  | 
CSc1cc(C)[nH]c(=O)c1CNC(=O)c1cc(-c2ccc(N3CCC(F)(F)CC3)nc2)c2c(c1C)OC(C)([C@H]1CC[C@H](N(C)C)CC1)O2 (relative stereo) [Compound 3, 7-(6-(4,4-difluoropiperidin-1-yl)pyridin-3-yl)-2-(trans-4-(dimethylamino)cyclohexyl)-2,4-dimethyl-N-((6-methyl-4-(methylthio)-2-oxo-1,2-dihydropyridin-3-yl)methyl)benzo[d][1,3]dioxole-5-carboxamide] | 73.5 | 66.5 | 30 to 70 | 30 to 70 | ≤ 30 | 30 to 70 | ≤ 30 | 30 to 70 |  | 
